Assays:
[1] = tested on: primary cardiomyocytes; experiment: Measurement of cell inhibition rate (MTT) on normal primary cardiomyocytes; format: cell-based, neonatal Wistar rats
Method: The isolation and culture of cardiomyocytes were performed by referring to the differential adhesion method (Kreider, A. Messing, H. Doan, S. U. Kim, R. P. Lisak and D. E. Pleasure, Enrichment of Schwann cell cultures from neonatal rat sciatic nerve by differential adhesion, Brain Res 2 (1981), pp. 433-444). […]
(§1) The isolated primary culture of cardiomyocytes was inoculated in an amount of 10^4 cells per well to a 96-well plate, and the volume of each well was 100 ul (marginal wells were filled with sterile PBS). […] The optical density (OD) value of each well was measured at wavelength of 550 nm by enzyme-linked immunoassay instrument, and each well was repeatedly measured for 5 times and the results were recorded.

[2] = tested on: TG-induced cardiomyocytes apoptosis; experiment: Protection against TG-induced cardiomyocyte apoptosis (MTT); format: cell-based, Wistar sucking mice
Method: The isolation and culture of cardiomyocytes were performed by referring to the differential adhesion method (Kreider, A. Messing, H. Doan, S. U. Kim, R. P. Lisak and D. E. Pleasure, Enrichment of Schwann cell cultures from neonatal rat sciatic nerve by differential adhesion, Brain Res 2 (1981), pp. 433-444). Wistar sucking mice newborn within 24 h were used, sterilized at skin of ventrum with iodine tincture and ethanol, subjected to thoracotomy using scissors at subxiphoid median line with a deviation to left, heart was taken out after slant thoracotomy and placed in PBS precooled with ice; the heart was softly blown and beaten with 0.01M PBS to remove blood cells and other tissues, then cut into pieces with 0.5 mm^3 size, washed with 0.01 M PBS repeatedly for 2-3 times; the pieces were placed in conical flask, added with 4 ml of 0.125% pancretin, 1 ml of 0.1% collagenase II (final concentrations separately being 0.1% and 0.02%), shaken in 37° C. water bath for 10 min, the supernatant was discarded; then 4 ml of 0.125% pancretin and 1 ml of 0.1% collagenase II again, shaken in 37° C. water bath for digestion for 10 min, the supernatant was sucked and transferred to a centrifuge tube, and the supernatant was added with DMEM containing 10% FBS to terminate digestion; the step of shaking and digestion in water bath was repeated for 3-4 times, until the tissue pieces were completely digested; the collected cell suspension was centrifuged under 1000 rpm for 10 min, the supernatant was removed, then a culture medium was added for resuspension; the resuspended cells were inoculated in a cell culture flask, placed in CO2 incubator at 37° C. for incubation for 1.5 h, then the culture medium was sucked out, countered under microscope, then DMEM culture medium containing 10% FBS was used to adjust cell density, inoculated in an amount of 1×10^4 to a 96-well plate, placed in 5% CO2 incubator at 37° C. for 24 h, then half medium was replaced, a culture medium containing 0.1% Brdu was supplementally added; then the medium was replaced once per 48 h, and primary cardiomyocytes were obtained after 4 days of cultivation.
as §1, with “recorded. […]” for “recorded.”

## O=C(/C=C/c1ccccc1)NC(NC(=O)Nc1cccc2cccnc12)C(Cl)(Cl)Cl (stereo not shown) [Example 1, (2E)-3-phenyl-N-[1-(8-quinolylamino)formylamino-2,2,2-trichloroethyl]-2-acrylamide]
[1]; Cardiomyocyte, 30 μM compound, 48 h, MTT, cell survival rate = 1 − cell inhibition rate
  inhibition at 30 µM: 9.57 ± 1.62%
[1]; Cardiomyocyte, 300 μM compound, 48 h, MTT, cell survival rate = 1 − cell inhibition rate
  inhibition at 300 µM: 7.78 ± 3.42%
[1]; concentration within 300 μM
  effect on survival rate of normal cardiomyocytes: no effect

## O=C(/C=C/c1ccccc1)NC(NC(=O)Nc1cccc2cccnc12)C(Cl)(Cl)Cl (stereo not shown) [Example 5, (2E)-3-phenyl-N-[1-(8-quinolylamino)formylamino-2,2,2-trichloroethyl]-2-acrylamide]
[2]; TG 0.4 uM + compound 0.3 μM, pretreatment 30 min before TG
  Cardiomyocyte survival rate (%): 79.3 ± 4.6%
[2]; TG 0.4 uM + compound 1 μM, pretreatment 30 min before TG
  Cardiomyocyte survival rate (%): 83.8 ± 8.3%
[2]; TG 0.4 uM + compound 3 μM, pretreatment 30 min before TG
  Cardiomyocyte survival rate (%): 84.2 ± 1.1%

## C/C=C(/C)C(=O)O[C@H]1C(C)=C2[C@H]([C@@H]1OC(=O)CCCCCCC)[C@@](C)(OC(C)=O)C[C@H](OC(=O)CCC)[C@@]1(O)[C@H]2OC(=O)[C@@]1(C)O [TG, thapsigargin, reference compound]
[2]; TG alone 0.4 uM (apoptosis inducer)
  Cardiomyocyte survival rate (%): 59 ± 1.1%

From patent US9260384B2, “Urea compounds and use thereof for inhibiting apoptosis” (Chinese PLA General Hospital, priority 2010, dated 2016)
